Each block holds one molecule with its values, some of them ahead of it.
Columns and labels:
[1] = system: naïve wild-type mice; assay: 4EPS sufficiency experiment: marble burying; assay type: in vivo; details: 4EPS-treated versus saline-treated mice
Experimental: Marble burying is an elicited repetitive behavior in rodents analogous to those observed in autistic individuals (Silverman et al., 2010b). This test was conducted and analyzed according to methods described in Thomas et al., 2009 and Malkova et al., 2012. Mice were habituated for 10 minutes to a novel testing cage containing a 4 cm layer of chipped cedar wood bedding and then transferred to a new housing cage. 18 glass marbles (15 mm diameter) were aligned equidistantly 6×3 in the testing cage. Mice were returned to the testing cage and the number of marbles buried in 10 minutes was recorded.
(§1) Wildtype mice were injected i.p. with saline or 30 mg/kg 4EPS potassium salt daily from 3 to 6 weeks of age. A dose-response curve was generated by measuring serum 4EPS levels at various times after i.p. injection of 30 mg/kg 4EPS (FIG. 15C). Mice were behaviorally tested as described above from 6 to 9 weeks of age.

[2] = system: naïve wild-type mice; assay: 4EPS sufficiency experiment: ultrasonic vocalizations; assay type: in vivo; details: 4EPS-treated versus saline-treated mice
Experimental: Male mice produce USVs in response to female mice as an important form of communication (Portfors, 2007). Adult male USV production in response to novel female exposure was measured according to methods described in Grimsley et al., 2011; Scattoni et al., 2011; and Silverman et al., 2010a. Adult males were single-housed one week before testing and exposed for 20 minutes to an unfamiliar adult female mouse each day starting four days prior to testing in order to provide a standardized history of sexual experience and to adjust for differences in social dominance. On testing day, mice were habituated to a novel cage for 10 minutes before exposure to a novel age-matched female. USVs were recorded for 3 minutes using the UltraSoundGate microphone and audio system (Avisoft Bioacoustics). Recordings were analyzed using Avisoft's SASLab Pro software after fast Fourier transformation at 512 FFT-length and detection by a threshold-based algorithm with 5 ms hold time. Data presented reflect duration and number of calls produced in the 3 minute session.
as §1

[3] = system: naïve wild-type mice; assay: 4EPS sufficiency experiment: pre-pulse inhibition and startle; assay type: in vivo; details: 30 mg/kg i.p. daily
Experimental: PPI tests are used as a measure of sensorimotor gating and were conducted and analyzed according to the procedure described in Geyer and Swerdlow, 2001 and Smith et al., 2007. Briefly, mice were acclimated to the testing chambers of the SR-LAB startle response system (San Diego Instruments) for 5 minutes, presented with six 120 db pulses of white noise (startle stimulus) and then subjected to 14 randomized blocks of either no startle, startle stimulus only, 5 db prepulse with startle or 15 db prepulse with startle. The startle response was recorded by a piezo-electric sensor, and the percent PPI is defined as: [((startle stimulus only—5 or 15 db prepulse with startle)/startle stimulus only)*100].
as §1

[4] = Serum 4EPS after i.p. injection; assay type: in vivo; details: single i.p. injection of 30 mg/kg potassium 4EPS, adult wild-type mice
Experimental: Authentic 4EPS and serum samples were analyzed by LC/MS using an Agilent […] HPLC system equipped with a photodiode array detector and interfaced to a model G1946C single quadrupole […] mass spectrometer. HPLC separations were obtained at 25° C. using an Agilent Zorbax XDB-C18 column (4.6 mm×50 mm×5 um particle size). The 4EPS ion was detected using selected ion monitoring for ions of m/z 200.9 and dwell time of 580 ms/ion, with the electrospray capillary set at 3 kV. […] For quantification of 4EPS in mouse sera, a dose-response curve was constructed by plotting the total ion count peak area for known concentrations of authentic potassium 4EPS against the analyte concentration (R^2=0.9998; FIG. 15B). Mouse serum samples were diluted four-fold with acetonitrile and centrifuged at 10,000 g at 4° C. for 3 minutes. 10 ul of supernatant was injected directly into the HPLC system.
as §1

[5] = 4EPS sufficiency experiment: body weight; assay type: in vivo; details: 4EPS- versus control-treated mice
Experimental: as §1

[6] = system: naïve wild-type mice; assay: 4EPS sufficiency experiment: open field exploration; assay type: in vivo
Experimental: The open field test is widely used to measure anxiety-like and locomotor behavior in rodents. Mice were placed in 50×50 cm white Plexiglas boxes for 10 minutes. An overhead video camera recorded the session, and Ethovision software (Noldus) was used to analyze the distance traveled, and the number of entries and duration of time spent in the center arena (central 17 cm square).
as §1

[7] = system: ASD individuals; details: cited from earlier work
[8] = system: CNTNAP2 knockout mice; details: cited from earlier work
[9] = system: claudin 8 and claudin 15; assay: In vitro colon culture with IL-6, claudin expression; assay type: cell-based, mice; details: in vitro colon organ cultures
Experimental: (§2) For in vivo assays, adult mice were gavaged with 5 ug carrier-free recombinant mouse IL-6 (eBioscience) in 1.5% sodium bicarbonate. At 4 hours post-gavage, 1 cm regions of distal, medial and proximal colon were dissected, washed in HBSS and processed for qRT-PCR, as described above. For in vitro assays, adult mice were sacrificed and 1 cm regions of distal, medial and proximal colon were dissected, washed and bisected for colon culture with 0-80 ng/ml IL-6 in complete RPMI media. After 4 hours of culture, colon pieces were harvested and processed for qRT-PCR, as described above.

[10] = system: claudin 8 and claudin 15; assay: IL-6 oral gavage, colon claudin expression; set-up: species or system mice; details: in vivo
Experimental: as §2

[11] = 30 mg/kg i.p. daily, relative to vehicle-treated controls

- marble burying [1]: no significant differences
- USV behavior [2]: no significant differences
- PPI ([3]; 5 db or 15 db pre-pulse): no significant alterations
- intensity of startle in response to the unconditioned primary stimulus ([3]; 120 db pulse): increased intensity of startle
- serum 4EPS [4]: Time-dependent increases
- distance traveled in the open field [6, 11]: comparable distances
- time in the center arena [6, 11]: less time
- number of entries into the center of the field ([6]; 30 mg/kg i.p. daily, versus vehicle-treated mice): no difference
Molecule: CCc1ccc(OS(=O)(=O)[O-])cc1.[K+] [4-ethylphenylsulfate]
- weight [5]: no difference
- anxiety-like behavior ([6]; 30 mg/kg i.p. daily from 3 to 6 weeks of age): sufficient to induce anxiety-like behavior

Molecule: Cc1nc2n(c(=O)c1CCN1CCC(c3noc4cc(F)ccc34)CC1)CCCC2 [risperidone]
- social behavior [7]: inability to improve social behavior
- social behavior [8]: inability to improve social behavior

B1: recombinant IL-6: carrier-free recombinant mouse IL-6 (eBioscience) (protein, UniProt P08505 25-211, looked up)
Interleukin-6: FPTSQVRRGDFTEDTTPNRPVYTTSQVGGLITHVLWEIVEMRKELCNGNSDCMNNDDALAENNLKLPEIQRNDGCYQTGYNQEICLLKISSGLLEYHSYLEYMKNNLKDNKKDKARVLQRDTETLIHIFNQEVKDLHKIVLPTPISNALLTDKLESQKEWLRTKTIQFILKSLEEFLKVTLRSTRQT
- colon levels of claudin 8 and claudin 15 [9]: can modulate
- colon levels of claudin 8 and claudin 15 [10]: can modulate

From US11052151B2, “Diagnosis and treatment of autism spectrum disorder” (California Institute of Technology, priority 2012, dated 2021)
